For orientation: EC50 means the concentration giving half of the maximal effect.

Data on 25 molecules can be found in US20200347043A1, “MODULATORS OF THE INTEGRATED STRESS PATHWAY” (Calico Life Sciences LLC, priority 2019, published 2020).

This assay has as its system HEK293T cells carrying the ATF4 luciferase reporter. Nature of the assay: ATF4-Luc assay (in vitro model of VWMD). Format: cell-based, human. Particulars: Homo sapiens, HEK-293T, 1 μg/mL tunicamycin, 7 hours, One Glo luminescence. In outline:
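Stable HEK293T line expressing firefly luciferase behind the human ATF4 5′-UTR, treated with 1 μg/mL tunicamycin plus compound for 7 hours. Luminescence read with One Glo; EC50 determined.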

The structures appear in SMILES notation.

As to `O=C1CC(C(=O)N[C@H]2CC[C@H](C(=O)NCc3nc4ccc(Cl)cc4[nH]3)CC2)Oc2ccc(Cl)cc21` (stereo partly shown) [Compound 138, 6-chloro-N-[(1r,4r)-4-{[(6-chloro-1H-benzimidazol-2-yl)methyl]carbamoyl}cyclohexyl]-4-oxo-3,4-dihydro-2H-1-benzopyran-2-carboxamide], the concentration giving a half-maximal response (EC50) is 50 to 250 nM.

For the molecule `O=C(N[C@H]1CC[C@H](C(=O)NCc2nc3ccc(Cl)cc3[nH]2)CC1)[C@H]1C[C@@H](O)c2cc(Cl)ccc2O1` (racemic) [Compound 126, rac-(2R,4R)-6-chloro-N-[(1r,4R)-4-{[(6-chloro-1H-benzimidazol-2-yl)methyl]carbamoyl}cyclohexyl]-4-hydroxy-3,4-dihydro-2H-1-benzopyran-2-carboxamide], the EC50 lay within 10 to 50 nM.

As for `O=C(NC12CC(c3ncc(-c4ccc(Cl)c(F)c4)o3)(C1)C2)[C@H]1C[C@@H](O)c2cc(Cl)ccc2O1` [Compound 270, (2R,4R)-6-chloro-N-{3-[5-(4-chloro-3-fluorophenyl)-1,3-oxazol-2-yl]bicyclo[1.1.1]pentan-1-yl}-4-hydroxy-3,4-dihydro-2H-1-benzopyran-2-carboxamide], the EC50 was less than 10 nM.

For `O=C1CC(C(=O)N[C@@H]2CC[C@@H](C(=O)NCc3ccc(C(F)(F)F)cc3)OC2)Oc2ccc(Cl)cc21` (stereo partly drawn) [Compound 137, 6-chloro-4-oxo-N-[(3R,6S)-6-({[4-(trifluoromethyl)phenyl]methyl}carbamoyl)oxan-3-yl]-3,4-dihydro-2H-1-benzopyran-2-carboxamide], the EC50 fell in the range of 50 to 250 nM.

Regarding `O=C(NC12CC(c3nc([C@H]4C[C@@H](OC(F)(F)F)C4)no3)(C1)C2)[C@@H]1C[C@@H](O)c2cc(Cl)ccc2O1` [Compound 217, (2S,4R)-6-chloro-4-hydroxy-N-(3-{3-[cis-3-(trifluoromethoxy)cyclobutyl]-1,2,4-oxadiazol-5-yl}bicyclo[1.1.1]pentan-1-yl)-3,4-dihydro-2H-1-benzopyran-2-carboxamide], the EC50 was 50 to 250 nM.

Take `O=C(NC12CC(n3cc(-c4ccc(OC(F)(F)F)cc4)cn3)(C1)C2)[C@H]1C[C@@H](O)c2cc(Cl)ccc2O1` [Compound 302, (2R,4R)-6-chloro-4-hydroxy-N-(3-{4-[4-(trifluoromethoxy)phenyl]-1H-pyrazol-1-yl}bicyclo[1.1.1]pentan-1-yl)-3,4-dihydro-2H-1-benzopyran-2-carboxamide]: the concentration giving a half-maximal response (EC50) is less than 10 nM.

On to `O=C(NC12CC(n3cnc(-c4ccc(F)c(F)c4)c3)(C1)C2)[C@H]1C[C@@H](O)c2cc(Cl)ccc2O1` [Compound 181, (2R,4R)-6-chloro-N-{3-[4-(3,4-difluorophenyl)-1H-imidazol-1-yl]bicyclo[1.1.1]pentan-1-yl}-4-hydroxy-3,4-dihydro-2H-1-benzopyran-2-carboxamide], for which the EC50 is less than 10 nM.

`O=C(N[C@@H]1C[C@@H]2O[C@H]1C[C@H]2c1nnc([C@H]2C[C@@H](OC(F)(F)F)C2)o1)[C@@H]1C[C@@H](O)c2cc(Cl)ccc2O1` (racemic) [Compound 185, (2S,4R)-6-chloro-4-hydroxy-N-[(1RS,2SR,4RS,5SR)-5-{5-[cis-3-(trifluoromethoxy)cyclobutyl]-1,3,4-oxadiazol-2-yl}-7-oxabicyclo[2.2.1]heptan-2-yl]-3,4-dihydro-2H-1-benzopyran-2-carboxamide]: the EC50 is greater than 2000 nM.

With `O=C(CO[C@H]1C[C@@H](OC(F)(F)F)C1)NC12CCC(NC(=O)[C@@H]3C[C@@H](O)c4cc(Cl)ccc4O3)(CC1)C[C@@H]2O` (single isomer, unassigned) [Compound 279], the half-maximal effective concentration (EC50) is less than 10 nM.

As for `O=C(CO[C@H]1C[C@@H](OC(F)(F)F)C1)NC12CCC(NC(=O)[C@H]3C[C@@H](O)c4cc(Cl)ccc4O3)(CC1)[C@@H](O)C2` [Compound 220, (2R,4R)-6-chloro-4-hydroxy-N-[(2S)-2-hydroxy-4-(2-{[cis-3-(trifluoromethoxy)cyclobutyl]oxy}acetamido)bicyclo[2.2.2]octan-1-yl]-3,4-dihydro-2H-1-benzopyran-2-carboxamide], the EC50 was less than 10 nM.

Turning to `O=C1CC(C(=O)N[C@@H]2CC[C@@H](c3nnc([C@H]4C[C@@H](OC(F)(F)F)C4)o3)OC2)Oc2ccc(Cl)cc21` (stereo partly drawn) [Compound 152, 6-chloro-4-oxo-N-[(3R,6)-6-{5-[(1s,3R)-3-(trifluoromethoxy)cyclobutyl]-1,3,4-oxadiazol-2-yl}oxan-3-yl]-3,4-dihydro-2H-1-benzopyran-2-carboxamide], the EC50 fell in the range of 10 to 50 nM.

In the case of `O=C(CO[C@H]1C[C@@H](OC(F)(F)F)C1)NC12CCC(NC(=O)[C@H]3CC(=O)c4cc(Cl)ccc4O3)(CC1)[C@@H](O)C2` [Compound 223, (2R)-6-chloro-N-[(2S)-2-hydroxy-4-(2-{[cis-3-(trifluoromethoxy)cyclobutyl]oxy}acetamido)bicyclo[2.2.2]octan-1-yl]-4-oxo-3,4-dihydro-2H-1-benzopyran-2-carboxamide], the EC50 fell in the range of 10 to 50 nM.

Turning to `O=C(NCc1cn2ccc(Cl)cc2n1)[C@@H]1CC[C@@H](NC(=O)[C@@H]2C[C@H](O)c3cc(Cl)ccc3O2)CO1` (racemic) [Compound 131, (2S,4S)-6-chloro-N-[(3R,6S)-6-{[(7-chloroimidazo[1,2-a]pyridin-2-yl)methyl]carbamoyl}oxan-3-yl]-4-hydroxy-3,4-dihydro-2H-1-benzopyran-2-carboxamide and (2R,4R)-6-chloro-N-[(3R,6S)-6-{[(7-chloroimidazo[1,2-a]pyridin-2-yl)methyl]carbamoyl}oxan-3-yl]-4-hydroxy-3,4-dihydro-2H-1-benzopyran-2-carboxamide], the EC50 lay in the range of 50 to 250 nM.

Consider `O=C(N[C@@H]1C[C@@H]2O[C@H]1C[C@H]2c1nnc([C@H]2C[C@@H](OC(F)(F)F)C2)o1)[C@@H]1C[C@H](O)c2cc(Cl)ccc2O1` (racemic) [Compound 186], for which the EC50 was in the range of 10 to 50 nM.

With `O=C1C[C@H](C(=O)NC23CC(C(=O)NCc4nc5cc(F)c(F)cc5[nH]4)(C2)C3)Oc2ccc(Cl)cc21` [Compound 135, (2R)-6-chloro-N-(3-{[(5,6-difluoro-1H-benzimidazol-2-yl)methyl]carbamoyl}bicyclo[1.1.1]pentan-1-yl)-4-oxo-3,4-dihydro-2H-1-benzopyran-2-carboxamide], the EC50 was 50 to 250 nM.

In the case of `O=C1C[C@H](C(=O)NC23CC(C(=O)NCc4ccc(C(F)(F)F)cn4)(C2)C3)Oc2ccc(Cl)cc21` [Compound 132, (2R)-6-chloro-4-oxo-N-[3-({[5-(trifluoromethyl)pyridin-2-yl]methyl}carbamoyl)bicyclo[1.1.1]pentan-1-yl]-3,4-dihydro-2H-1-benzopyran-2-carboxamide], the EC50 fell in the range of 50 to 250 nM.

Regarding `O=C(NC12CC(c3nc(-c4ccc(Cl)c(F)c4)no3)(C1)C2)[C@@H]1C[C@H](O)c2cc(Cl)ccc2O1` (single isomer, unassigned) [Compound 199], the EC50 is 50 to 250 nM.

Take `O=C(NC12CC(c3cc(-c4ccc(Cl)c(F)c4)on3)(C1)C2)[C@H]1C[C@@H](O)c2cc(Cl)ccc2O1` [Compound 258, (2R,4R)-6-chloro-N-{3-[5-(4-chloro-3-fluorophenyl)-1,2-oxazol-3-yl]bicyclo[1.1.1]pentan-1-yl}-4-hydroxy-3,4-dihydro-2H-1-benzopyran-2-carboxamide]: the EC50 is less than 10 nM.

Consider `O=C(N[C@H]1C[C@@H](OC(F)(F)F)C1)[C@H]1C[C@H]2O[C@@H]1C[C@@H]2NC(=O)[C@H]1C[C@@H](O)c2cc(Cl)ccc2O1` (mixture of isomers) [Compound 219, (2R,4R)-6-chloro-4-hydroxy-N-[(1RS,2SR,4RS,5SR)-5-{[cis-3-(trifluoromethoxy)cyclobutyl]carbamoyl}-7-oxabicyclo[2.2.1]heptan-2-yl]-3,4-dihydro-2H-1-benzopyran-2-carboxamide], for which the EC50 fell in the range of 500 to 2000 nM.

Regarding `O=C(NC12CC(c3nnc(COc4ccc(Cl)c(F)c4)o3)(C1)C2)[C@H]1C[C@@H](O)c2cc(Cl)ccc2O1` [Compound 110, (2R,4R)-6-chloro-N-(3-{5-[(4-chloro-3-fluorophenoxy)methyl]-1,3,4-oxadiazol-2-yl}bicyclo[1.1.1]pentan-1-yl)-4-hydroxy-3,4-dihydro-2H-1-benzopyran-2-carboxamide], the EC50 was less than 10 nM.

Regarding `O=C(NC12CC(c3ncc([C@H]4C[C@@H](OC(F)(F)F)C4)o3)(C1)C2)[C@H]1C[C@@H](O)c2cc(Cl)ccc2O1` [Compound 288, (2R,4R)-6-chloro-4-hydroxy-N-(3-{5-[cis-3-(trifluoromethoxy)cyclobutyl]-1,3-oxazol-2-yl}bicyclo[1.1.1]pentan-1-yl)-3,4-dihydro-2H-1-benzopyran-2-carboxamide], the 50% effective concentration (EC50) lay in the range of 10 to 50 nM.

For `O=C(NC12CC(c3cc([C@H]4C[C@@H](OC(F)(F)F)C4)on3)(C1)C2)[C@H]1C[C@@H](O)c2cc(Cl)ccc2O1` [Compound 234, (2R,4R)-6-chloro-4-hydroxy-N-{3-(5-[cis-3-(trifluoromethoxy)cyclobutyl]-1,2-oxazol-3-yl}bicyclo[1.1.1]pentan-1-yl)-3,4-dihydro-2H-1-benzopyran-2-carboxamide], the EC50 lay within 10 to 50 nM.

As for `O=C(NC12CC(n3ncc4cc(Cl)ccc43)(C1)C2)[C@H]1C[C@@H](O)c2cc(Cl)ccc2O1` [Compound 235, (2R,4R)-6-chloro-N-[3-(5-chloro-1H-indazol-1-yl)bicyclo[1.1.1]pentan-1-yl]-4-hydroxy-3,4-dihydro-2H-1-benzopyran-2-carboxamide], the EC50 lay in the range of 50 to 250 nM.

Take `O=C(N[C@H]1C[C@H]2CC[C@@H](C1)N2CCCOc1ccc(Cl)cc1)[C@H]1C[C@@H](O)c2cc(Cl)ccc2O1` [Compound 125, (2R,4R)-6-chloro-N-{(1R,3r,5S)-8-[3-(4-chlorophenoxy)propyl]-8-azabicyclo[3.2.1]octan-3-yl}-4-hydroxy-3,4-dihydro-2H-1-benzopyran-2-carboxamide]: the EC50 was in the range of 50 to 250 nM.

As for `O=C(NC12CC(c3nnc(COc4ccc(Cl)c(F)c4)o3)(C1)C2)[C@@H]1C[C@H](O)c2cc(Cl)ccc2O1` [Compound 111, (2S,4S)-6-chloro-N-(3-{5-[(4-chloro-3-fluorophenoxy)methyl]-1,3,4-oxadiazol-2-yl}bicyclo[1.1.1]pentan-1-yl)-4-hydroxy-3,4-dihydro-2H-1-benzopyran-2-carboxamide], the EC50 was 10 to 50 nM.
